Data from PubChem BioAssay (NCI).
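Where inhibition never reached the appropriate level, the endpoint shown equals the highest concentration tested. Otherwise, values were interpolated linearly from a five-concentration, 48-hour dose response in 96-well plates. GI50: concentration for 50% inhibition of growth. TGI marks complete inhibition of growth.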

Tests used:
Experiment in all cases: NCI anticancer screen, dose series, 48 h
[1] = system: NCI-H226 lung
[2] = system: UO-31 renal
[3] = system: ACHN renal
[4] = system: MALME-3M melanoma
[5] = system: SNB-75 CNS
[6] = system: HT29 colon
[7] = system: SF-539 CNS
[8] = system: MCF7 breast
[9] = system: NCI-H522 lung
[10] = system: RXF 393 renal
[11] = system: OVCAR-5 ovarian
[12] = system: DU-145 prostate
[13] = system: HS 578T breast
[14] = system: A549 NSCLC
[15] = system: K-562 leukemia
[16] = system: SN12C renal
[17] = system: OVCAR-3 ovarian
[18] = system: SK-OV-3 ovarian
[19] = system: 786-0 renal
[20] = system: A498 renal
[21] = system: CAKI-1 renal
[22] = system: OVCAR-8 ovarian
[23] = system: HCT-116 colon
[24] = system: MOLT-4 leukemia
[25] = system: MDA-MB-435
[26] = system: LOX IMVI melanoma
[27] = system: IGROV1 ovarian
[28] = system: SK-MEL-2 melanoma

COc1ccccc1N1CCN(C2=NN=C(c3cccc(Cl)c3)c3ccccc3C2)CC1
GI50 [1]: 1160 nM | TGI [1]: > 36300 nM | GI50 [2]: 708 nM | TGI [2]: > 100000 nM | GI50 [3]: 554 nM | TGI [3]: > 100000 nM | GI50 [4]: 630 nM | TGI [4]: > 100000 nM | GI50 [5]: 491 nM | TGI [5]: 20300 nM | GI50 [6]: 337 nM | GI50 [7]: 277 nM | TGI [7]: 847 nM | GI50 [8]: 351 nM | TGI [8]: > 38000 nM | GI50 [9]: 270 nM | GI50 [10]: 270 nM | TGI [10]: 2760 nM | GI50 [11]: 498 nM | TGI [11]: > 37200 nM | GI50 [12]: 367 nM | TGI [12]: 2370 nM | GI50 [13]: 332 nM | GI50 [14]: 425 nM | TGI [14]: > 100000 nM | GI50 [15]: 336 nM | TGI [15]: > 100000 nM | GI50 [16]: 474 nM | TGI [16]: > 100000 nM | GI50 [17]: 282 nM | TGI [17]: 793 nM | GI50 [18]: 637 nM | TGI [18]: 97400 nM | GI50 [19]: 542 nM | TGI [19]: 13200 nM | GI50 [20]: 350 nM | TGI [20]: 2780 nM | GI50 [21]: 410 nM | TGI [21]: 13500 nM | GI50 [22]: 438 nM | TGI [22]: > 100000 nM | GI50 [23]: 337 nM | TGI [23]: > 36600 nM | GI50 [24]: 356 nM | TGI [24]: > 100000 nM | GI50 [25]: 206 nM | TGI [25]: 497 nM | GI50 [26]: 418 nM | TGI [26]: > 100000 nM | GI50 [27]: 474 nM | TGI [27]: > 100000 nM | GI50 [28]: 743 nM
